Measurements: patent publication US20050069887A1, “Dna synthesis promoters dna polymerase-associated factors and utilization thereof” (priority 2001, published 2005)

Legend:
KOD-plus DNA polymerase [1] = biological target: T1, KOD-plus DNA polymerase (Thermococcus kodakarensis, UniProt P77933, DEL407-766/DEL853-1389); type: biochemical, Thermococcus kodakaraensis KOD1
T1 construct: purchased Toyobo
Method: The effect produced by the addition of oxalate ion to a hot start enzyme was investigated using a hot start enzyme KOD-plus DNA polymerase containing KOD α-type enzyme) and two kinds of KOD antibodies. The PCR buffer supplied with KOD-plus (manufactured by Toyobo), 0.2 mM dNTPs and 0.3 μM of a primer pair of SEQ ID Nos:8 and 9 were used. PCR was performed using 2.5 U KOD-plus DNA polymerase and 20 ng of Genomic DNA derived from human cell line K562 as a template to investigate the influence of varying the concentration of oxalate ion added on the PCR results. The PCR conditions were as follows: 1 preliminary reaction of 94° C. for 2 minutes, and then 35 cycles of 94° C. for 15 seconds, 60° C. for 30 seconds and 68° C. for 8.5 minutes. The PCR was performed using GeneAmp2400 (PE Applied Biosystems).

nPfu DNA polymerase = biological target: T2, nPfu DNA polymerase (Pyrococcus furiosus, UniProt P61875); test: PCR using nPfu DNA polymerase with added salts (Examples 1-5, 1-6); type: biochemical; details: salt at 4-6 mM of ion equivalent, FIG. 7
T2 construct: α-Type Enzyme (Native Pfu); purchased STRATAGENE
T2 sequence (P61875 1-775): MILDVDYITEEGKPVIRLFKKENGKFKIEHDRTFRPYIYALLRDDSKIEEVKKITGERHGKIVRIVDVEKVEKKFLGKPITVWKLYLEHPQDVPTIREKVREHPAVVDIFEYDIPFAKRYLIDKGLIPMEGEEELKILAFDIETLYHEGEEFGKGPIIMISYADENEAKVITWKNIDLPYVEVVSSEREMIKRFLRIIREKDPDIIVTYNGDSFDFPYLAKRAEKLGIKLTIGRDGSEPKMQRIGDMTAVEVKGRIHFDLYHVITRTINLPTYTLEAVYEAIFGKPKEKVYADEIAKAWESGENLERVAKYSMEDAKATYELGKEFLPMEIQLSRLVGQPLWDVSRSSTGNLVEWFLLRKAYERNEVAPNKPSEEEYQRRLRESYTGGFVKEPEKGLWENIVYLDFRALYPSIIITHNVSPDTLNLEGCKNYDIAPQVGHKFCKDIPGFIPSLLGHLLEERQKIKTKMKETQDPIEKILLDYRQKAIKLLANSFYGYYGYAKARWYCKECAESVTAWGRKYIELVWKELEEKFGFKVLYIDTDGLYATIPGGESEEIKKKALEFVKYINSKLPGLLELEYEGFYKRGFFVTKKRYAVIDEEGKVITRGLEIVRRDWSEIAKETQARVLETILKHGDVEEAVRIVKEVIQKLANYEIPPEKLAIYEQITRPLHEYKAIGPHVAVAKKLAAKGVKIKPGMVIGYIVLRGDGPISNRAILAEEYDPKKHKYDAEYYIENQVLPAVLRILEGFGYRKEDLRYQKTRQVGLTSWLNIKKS
Method: The effect produced by the addition of oxalate ion in PCR was investigated using nPfu polymerase. A PCR buffer (20 mM Tris-HCl (pH 8.75), 10 mM KCl, 10 mM (NH4) 2SO4, 2 mM MgSO4, 0.1% Triton X-100, 100 μg/ml BSA) attached to nPfu (STRATAGENE), 0.2 mM of dNTPs, and 0.3 μM of a pair of primers of SEQ ID NOs:12, and 13 were used. PCR was performed by using 2.5 U nPfu DNA polymerase and 20 ng of genomic DNA derived from human cell line K562 as a template, with the influence on the PCR result caused by varying the concentration of oxalate ion being investigated. PCR was performed by using GeneAmp2400 (PE Applied Biosystems) with the following conditions: 1 preliminary reaction of 94° C. for 2 minutes, and then 35 cycles of 94° C. for 15 seconds, 60° C. for 30 seconds and 68° C. for 8 minutes.
Salts (potassium chloride, potassium acetate, potassium oxalate, potassium sulfate) were tested for their effectiveness in PCR using nPfu DNA polymerase under the same conditions as Example 1-5.

KOD-plus DNA polymerase [2] = biological target: T1, KOD-plus DNA polymerase; type: biochemical, Thermococcus kodakaraensis KOD1; details: salt at 6 mM of ion equivalent, FIG. 9
EX-Taq DNA polymerase = test: PCR using EX-Taq with oxalate ion and betaine (Example 2-1); type: biochemical; details: 2 mM potassium oxalate, 0.5 M betaine, FIG. 11
Method: Oxalate ion and betaine were investigated for their synergistic effectiveness in amplification of a target DNA which cannot be usually amplified by PCR using EX-Taq DNA polymerase (TAKARA). Potassium oxalate was added to the PCR buffer attached to EX-Taq DNA polymerase to attain a final concentration of 2 mM. Also used were 0.2 mM dNTPs, 0.3 μM of a pair of primers consisting of the sequences of ID NOs:14 and 15 respectively, and 1.0 U EX-Taq DNA polymerase. 20 ng of genomic DNA derived from human cell line K562 was used as a template. This reaction mixture was subjected to PCR by using GeneAmp2400 (PE Applied Biosystems) to investigate the influence of varying the concentration of betaine added on the PCR results. The PCR conditions were as follows: 1preliminary reaction of 94° C. for 2 minutes, and then 35 cycles of 94° C. for 15 seconds, 60° C. for 30 seconds and 68° C. for 8.5 minutes.

KOD-plus DNA polymerase [3] = biological target: T1, KOD-plus DNA polymerase; test: PCR using KOD-plus with oxalate ion and betaine (Example 2-3); type: biochemical, Thermococcus kodakaraensis KOD1; details: 2 mM potassium oxalate, FIG. 13
Method: Oxalate ion and betaine were investigated for their synergistic effectiveness in amplification of a target DNA which cannot be amplified by normal PCR, using KOD-plus DNA polymerase, i.e. a hot start enzyme which is a mixture of KOD (α-type enzyme) and two kinds of KOD antibodies. Potassium oxalate was added to the PCR buffer supplied with KOD-plus (TOYOBO CO., LTD.) to attain a final concentration of 2 mM. Also used were 0.2 mM dNTPs and 0.3 μM of a pair of primers of SEQ ID NOs: 14 and 15. 20 ng of genomic DNA derived from human cell line K562 was used as a template. This reaction mixture was subjected to PCR by using GeneAmp2400 (PE Applied Biosystems) to investigate the influence of varying the concentration of betaine on the PCR results. The PCR conditions were as follows: 1 preliminary reaction of 94° C. for 2 minutes, and then 35 cycles of 94° C. for 15 seconds, 60° C. for 30 seconds and 68° C. for 8.5 minutes.

T1 sequence (P77933 other isoform, or with tags, fused parts or gaps DEL407-766/DEL853-1389): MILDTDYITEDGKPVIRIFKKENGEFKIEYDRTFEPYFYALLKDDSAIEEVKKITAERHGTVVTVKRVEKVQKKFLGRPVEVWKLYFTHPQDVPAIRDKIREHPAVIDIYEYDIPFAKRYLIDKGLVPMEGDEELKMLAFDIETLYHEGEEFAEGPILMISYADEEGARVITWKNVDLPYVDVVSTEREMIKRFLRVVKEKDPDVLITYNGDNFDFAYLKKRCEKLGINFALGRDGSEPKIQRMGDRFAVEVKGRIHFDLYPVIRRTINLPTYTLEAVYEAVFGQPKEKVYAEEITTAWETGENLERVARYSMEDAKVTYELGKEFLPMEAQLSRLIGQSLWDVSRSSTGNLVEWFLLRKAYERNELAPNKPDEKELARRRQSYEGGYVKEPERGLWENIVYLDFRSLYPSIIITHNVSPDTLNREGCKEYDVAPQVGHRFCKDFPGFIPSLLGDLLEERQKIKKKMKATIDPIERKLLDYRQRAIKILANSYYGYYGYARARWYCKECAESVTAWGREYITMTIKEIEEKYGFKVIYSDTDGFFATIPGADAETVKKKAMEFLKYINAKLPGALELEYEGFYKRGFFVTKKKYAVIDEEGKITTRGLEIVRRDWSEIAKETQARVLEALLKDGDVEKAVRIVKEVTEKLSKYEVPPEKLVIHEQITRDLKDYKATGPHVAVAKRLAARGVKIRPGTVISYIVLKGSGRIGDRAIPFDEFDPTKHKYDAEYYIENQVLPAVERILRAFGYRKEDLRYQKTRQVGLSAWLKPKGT

Structure (SMILES)	amount of the target DNA amplified (KOD-plus DNA polymerase [1]; 5 mM of potassium oxalate)	optimal concentration of potassium oxalate (KOD-plus DNA polymerase [1]; FIG. 8)	effect on extra bands and target amplification (KOD-plus DNA polymerase [1]; in the presence of potassium oxalate, FIG. 8)	amplification of target DNA (electrophoresis pattern) (nPfu DNA polymerase)	amplification of target DNA (electrophoresis pattern) (KOD-plus DNA polymerase [2])	amplification of target DNA (EX-Taq DNA polymerase)	betaine concentration at which the amount of amplification was greatest (KOD-plus DNA polymerase [3])	betaine concentration giving an increased amount of amplification of the target DNA (KOD-plus DNA polymerase [3])
O=C([O-])C(=O)[O-].[K+].[K+] [potassium oxalate]	a decrease in the amount of the target DNA amplified was found	about 3 mM	no extra bands were observed and only the target DNA was amplified	amplification of the target DNA observed	Amplification was observed	–	–	–
C[N+](C)(C)CC(=O)[O-] [betaine, trimethylglycine]	–	–	–	–	–	an increase in amplification amount was observed	1.5 M	0.5 to 1.5 M
